We go through one molecule from US9611276B2, “Imidazo bicyclic iminium compounds as antitumor agents” (THE BOARD OF TRUSTEES OF THE LELAND STANFORD JUNIOR …, priority 2012, dated 2017).

The test system of the experiment is Hh pathway activity. The experiment is described as follows: Shh-LIGHT2 cell assay with ShhN-conditioned medium. In kind it is cell-based. Here is the method:
Shh-LIGHT2 cells [see Taipale et al. Nature. 2000; 406(6799):1005-9], an NIH-3T3-based cell line containing a stably integrated Gli-responsive firefly luciferase reporter (8XGliBS-FL) and constitutive Renilla luciferase reporter (pRLTK, Promega), were cultured in DMEM (Invitrogen, 11965) containing 10% (v/v) calf serum [the American Type Culture Collection (ATCC), 30-2030], 150 μg/mL zeocin (Invitrogen, R250-01), 400 μg/mL G418 (Invitrogen, 11811), 1 mM sodium pyruvate (Invitrogen, 11360) and 1× PenStrep.
All test compounds were dissolved in DMSO at 50 mM, serially diluted by 1:3, 1:4 or 1:5 in a 96-well translucent microplate (Greiner bio-one, 650201) and stored at −20° C. These serial dilutions were added to assay media freshly with final DMSO concentration of 0.2% (v/v).
The Shh-LIGHT2 cell assay provides a measure of Hh pathway activity. ShhN-conditioned medium was prepared by culturing a Shh-N-producing HEK 293 cell line [see Chen et al. Proc Natl Acad Sci USA. […] The cells were lysed with passive lysis buffer (50 μL/well), and 10 μL of the obtained lysate were analyzed for firefly and Renilla luciferase activities using Dual-Luciferase Reporter Assay System (Promega, E1960) (50 μL/well of each reagent) on a microplate luminometer (Veritas). Biological triplicates were analyzed for each test compounds.

Turning to `CCOc1ccc(-[n+]2cc(-c3ccc(Br)cc3)n3c2CCCCC3)cc1` [Compound A-1], under “Shh-LIGHT2 cells stimulated with ShhN”, the “Inhibition of Hh pathway activity” value was “inhibits Hh pathway activity”. In addition, under “Shh-LIGHT2 w/ ShhN, read-out: IC50, firefly luciferase”, the IC50 is 6.6 µM.
